# Experimental data published in patent US20130023681A1, “STABILIZED DOXERCALCIFEROL AND PROCESS FOR MANUFACTURING THE SAME” (ALPHORA RESEARCH INC., priority 2010, published 2013).
# Entries after “also recorded” stand apart in the source; their conditions may differ.
# How the values were obtained:
# [1] = Accelerated storage study (HPLC analysis of stored samples); format: physicochemical
# Description: (§1) Samples of material generated by the aforementioned procedure were quarantined, stored and subjected to 2 stability studies:
# (§2) Both studies employed ICH-compliant stability chambers for controlled storage, and the following HPLC method for analysis of samples:
# (§3) HPLC Detector/wavelength: Photo Diode Array Detector/190-400 nm
# (§4) Column: Waters SUNFIRE C18, 4.6 by 150 mm, 3.5 μm
# (§5) Column/sample Temperature: 25° C./5° C.
# (§6) Flow Rate/injection volume: 1.2 mL per min/10.00 μL
# (§7) Sample concentration: 1 mg/mL
# (§8) Diluent: Water: DCM: MeOH: ACN (10: 5: 10: 75)
# (§9) Eluent: A (H2O); B (ACN); C (MeOH)
# Samples were subjected to the following conditions: 25±2° C./60±2% R.H., Argon headspace. Samples were stored in ICH-compliant stability chambers, sampled at 1, 3 and 6 months, and analyzed using the described HPLC method.
# [2] = Long term stability study (HPLC analysis of stored samples); format: physicochemical
# Description: as §1, §2, §3, §4, §5, §6, §7, §8, §9
# Samples were subjected to the following conditions: 5±3° C. Argon headspace, −20±5° C., Argon headspace. Samples were stored in ICH-compliant stability chambers, sampled at 1, 3, 6 and 9 months, and analyzed using the described HPLC method.
structure (smiles),measurement,setting,value
C=C1/C(=C\C=C2/CCC[C@]3(C)[C@@H]([C@H](C)/C=C/[C@H](C)C(C)C)CC[C@@H]23)C[C@@H](O)C[C@@H]1O [1α-hydroxyvitamin D2],HPLC purity after accelerated storage,"[1]; 25±2° C./60±2% R.H., Argon headspace, time-points 1, 3 and 6 months, initial (t=0) HPLC a/a purity >99.0% a/a",≥ 99.0%
same,HPLC assay after accelerated storage,"[1]; 25±2° C./60±2% R.H., Argon headspace, time-points 1, 3 and 6 months, initial (t=0) HPLC w/w assay >99.0% w/w",≥ 99.0 % w/w
same,Change in purity on accelerated storage (in words),"[1]; samples of purity 99% and above, 1, 3 and 6 months at 25±2° C., relative humidity 60±2%, argon headspace",no reduction in purity
same,HPLC purity after long term storage,"[2]; 5±3° C. Argon headspace, −20±5° C. Argon headspace, time-points 1, 3, 6 and 9 months, initial (t=0) HPLC a/a purity >99.0% a/a",≥ 99.0%
same,HPLC assay after long term storage,"[2]; 5±3° C. Argon headspace, −20±5° C. Argon headspace, time-points 1, 3, 6 and 9 months, initial (t=0) HPLC w/w assay >99.0% w/w",≥ 99.0 % w/w
same,Change in purity / stability in ICH stability studies (in words),"[2]; samples of purity 99% and above, six months under argon headspace at either −20±5° C. or 5±3° C.",unexpectedly high stability; also recorded: no reduction in purity
